Reference: the supplement of paper PMC10307832

Legend:
Experiment in all cases: relative viability (nuclei count vs DMSO), 5 days (fraction); higher = more cells survive
Pictilisib + Decitabine = compound: CS(=O)(=O)N1CCN(Cc2cc3nc(-c4cccc5[nH]ncc45)nc(N4CCOCC4)c3s2)CC1 [Pictilisib] + Nc1ncn([C@H]2C[C@H](O)[C@@H](CO)O2)c(=O)n1 [Decitabine] (partner 2 µM)
Procedure, shortened: (§1)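 Relative viability was taken as the ratio of nuclei in treated wells to nuclei in vehicle wells. Lung cancer cell lines in 1536-well plates received compounds by pin tool one day after seeding, either one drug alone or a fixed anchor-drug dose plus five library-drug doses (not always all listed) in √10 steps. Nuclei were counted on 4× images after 5 days of treatment, and values are medians of duplicate plates.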

MK-2206 + Tozasertib = compound: NC1(c2ccc(-c3nc4ccn5c(=O)[nH]nc5c4cc3-c3ccccc3)cc2)CCC1 [MK-2206] + Cc1cc(Nc2cc(N3CCN(C)CC3)nc(Sc3ccc(NC(=O)C4CC4)cc3)n2)n[nH]1 [Tozasertib] (partner 0.1 µM)
Procedure, shortened: as §1

MK-2206 + Olaparib = compound: NC1(c2ccc(-c3nc4ccn5c(=O)[nH]nc5c4cc3-c3ccccc3)cc2)CCC1 [MK-2206] + O=C(c1cc(Cc2n[nH]c(=O)c3ccccc23)ccc1F)N1CCN(C(=O)C2CC2)CC1 [Olaparib] (partner 8 µM)
Procedure, shortened: as §1

Pictilisib + Bortezomib = compound: CS(=O)(=O)N1CCN(Cc2cc3nc(-c4cccc5[nH]ncc45)nc(N4CCOCC4)c3s2)CC1 [Pictilisib] + CC(C)C[C@H](NC(=O)[C@H](Cc1ccccc1)NC(=O)c1cnccn1)B(O)O [Bortezomib] (partner 0.002 µM)
Procedure, shortened: as §1

Pictilisib + Navitoclax = compound: CS(=O)(=O)N1CCN(Cc2cc3nc(-c4cccc5[nH]ncc45)nc(N4CCOCC4)c3s2)CC1 [Pictilisib] + CC1(C)CCC(c2ccc(Cl)cc2)=C(CN2CCN(c3ccc(C(=O)NS(=O)(=O)c4ccc(N[C@H](CCN5CCOCC5)CSc5ccccc5)c(S(=O)(=O)C(F)(F)F)c4)cc3)CC2)C1 [Navitoclax] (partner 0.5 µM)
Procedure, shortened: as §1

| Cell Line | relative viability (Pictilisib + Decitabine; first compound 0.02 µM) | relative viability (Pictilisib + Decitabine; first compound 0.06325 µM) | relative viability (Pictilisib + Decitabine; first compound 0.6325 µM) | relative viability (Pictilisib + Decitabine; first compound 2 µM) | relative viability (MK-2206 + Tozasertib; first compound 0.01 µM) | relative viability (MK-2206 + Tozasertib; first compound 0.03162 µM) | relative viability (MK-2206 + Tozasertib; first compound 0.3162 µM) | relative viability (MK-2206 + Tozasertib; first compound 1 µM) | relative viability (MK-2206 + Olaparib; first compound 0.01 µM) | relative viability (MK-2206 + Olaparib; first compound 0.03162 µM) | relative viability (MK-2206 + Olaparib; first compound 0.3162 µM) | relative viability (MK-2206 + Olaparib; first compound 1 µM) | relative viability (Pictilisib + Bortezomib; first compound 0.02 µM) | relative viability (Pictilisib + Bortezomib; first compound 0.06325 µM) | relative viability (Pictilisib + Bortezomib; first compound 0.6325 µM) | relative viability (Pictilisib + Bortezomib; first compound 2 µM) | relative viability (Pictilisib + Navitoclax; first compound 0.02 µM) | relative viability (Pictilisib + Navitoclax; first compound 0.06325 µM) | relative viability (Pictilisib + Navitoclax; first compound 0.6325 µM) | relative viability (Pictilisib + Navitoclax; first compound 2 µM) |
| --- | --- | --- | --- | --- | --- | --- | --- | --- | --- | --- | --- | --- | --- | --- | --- | --- | --- | --- | --- | --- |
| NCI-H647 | 0.308 | 0.389 | 0.276 | 0.236 | 0.316 | 0.377 | 0.289 | 0.233 | 0.568 | 0.559 | 0.662 | 0.388 | 1.19 | 1.07 | 0.965 | 0.513 | 1.27 | 1.03 | 0.928 | 0.351 |
| NCI-H727 | 0.651 | 0.979 | 0.699 | 0.781 | 0.578 | 0.659 | 0.559 | 0.626 | 0.696 | 0.674 | 0.716 | 0.675 | 0.992 | 0.941 | 0.784 | 0.609 | 0.55 | 0.433 | 0.303 | 0.156 |
| NCI-H838 | 0.474 | 0.492 | 0.381 | 0.371 | 0.286 | 0.259 | 0.26 | 0.253 | 0.768 | 0.857 | 0.767 | 0.685 | 0.77 | 0.744 | 0.606 | 0.313 | 1.12 | 1.04 | 1.01 | 0.61 |
| NCI-H1355 | 0.336 | 0.388 | 0.383 | 0.331 | 0.555 | 0.587 | 0.533 | 0.47 | 0.767 | 0.829 | 0.672 | 0.761 | 1.23 | 1.2 | 1.14 | 0.678 | 0.941 | 0.902 | 0.828 | 0.501 |
| NCI-H1437 | 0.499 | 0.534 | 0.536 | 0.438 | 0.408 | 0.425 | 0.396 | 0.349 | 0.632 | 0.643 | 0.698 | 0.653 | 0.582 | 0.488 | 0.532 | 0.231 | 1.16 | 1.14 | 1.04 | 0.677 |
| NCI-H1650 | 0.41 | 0.39 | 0.438 | 0.432 | 0.364 | 0.377 | 0.408 | 0.346 | 0.72 | 0.864 | 0.969 | 0.957 | 0.199 | 0.205 | 0.207 | 0.172 | 1.21 | 1.19 | 0.828 | 0.31 |
| NCI-H1651 | 0.473 | 0.603 | 0.505 | 0.413 | 0.623 | 0.667 | 0.665 | 0.59 | 0.178 | 0.154 | 0.174 | 0.181 | 0.948 | 0.939 | 0.911 | 0.707 | 1.02 | 0.926 | 0.9 | 0.53 |
